Where “and” joins values, the source holds several entries; their conditions need not be identical. Identical values can stand only once. Entries after “also recorded” stand apart in the source; their conditions may differ. Like-named read-outs stand apart in the source and are kept apart here. No end group written: not given here.
Assays:
[1] = target: T1, GmPOPB_S577A (Galerina marginata, UniProt H2E7Q8, S577A); assay: ITC binding to inactive mutant GmPOPB_S577A; settings: for difference in binding affinity (fold): 13mer versus 35mer, 12 versus 17 amino acid recognition sequence; for binding (in words): concentrations up to 1 mM
T1 construct: His-tag (TEV-cleavable) (cleaved yes); made in house; host or cells: E. coli BL21(DE3)
T1 sequence (H2E7Q8 1-730 S577A): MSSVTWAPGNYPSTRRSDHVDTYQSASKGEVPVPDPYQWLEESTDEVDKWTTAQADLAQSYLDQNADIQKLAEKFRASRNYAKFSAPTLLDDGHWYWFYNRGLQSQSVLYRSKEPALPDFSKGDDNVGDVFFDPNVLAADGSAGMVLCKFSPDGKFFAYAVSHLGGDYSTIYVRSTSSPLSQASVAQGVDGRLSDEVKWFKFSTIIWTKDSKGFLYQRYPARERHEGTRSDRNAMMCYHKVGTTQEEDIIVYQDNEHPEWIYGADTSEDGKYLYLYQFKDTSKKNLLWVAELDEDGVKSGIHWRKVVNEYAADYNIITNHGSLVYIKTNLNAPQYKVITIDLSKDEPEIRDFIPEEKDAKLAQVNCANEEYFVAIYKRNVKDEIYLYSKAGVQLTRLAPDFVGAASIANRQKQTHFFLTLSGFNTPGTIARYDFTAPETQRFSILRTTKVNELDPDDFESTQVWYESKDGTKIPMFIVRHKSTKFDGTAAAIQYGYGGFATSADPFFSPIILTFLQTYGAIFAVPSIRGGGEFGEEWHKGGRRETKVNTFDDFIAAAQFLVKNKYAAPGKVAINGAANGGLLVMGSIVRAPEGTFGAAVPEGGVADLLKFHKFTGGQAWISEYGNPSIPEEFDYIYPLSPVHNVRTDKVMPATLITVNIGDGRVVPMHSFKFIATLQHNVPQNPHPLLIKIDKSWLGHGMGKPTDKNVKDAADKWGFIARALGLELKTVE
Method: GmPOPB peptide ligand solutions were prepared in 20 mM Tris pH 8.0 containing 1 mM DTT, prior to buffer exchange by three cycles of dilution in 50 mM Tris pH 8.0 with 50 mM NaCl, 10 mM DTT followed by concentration using a Microsep Advance centrifugal device equipped with a 1 kDa cut off membrane (Pall Corporation). The same three cycles of dilution in 50 mM Tris pH 8.0 with 50 mM NaCl and 10 mM DTT followed by concentration were performed with the protein to be used in the titration using a Vivaspin protein concentrator spin column with a 30 kDa cut off (GE Healthcare). A final dilution to the concentration to be used for titration was performed using the buffer that passed through during the protein buffer exchange, both for the protein and peptide to be used to avoid any possible buffer mismatch. […] Titrations of peptide into protein solutions were conducted at 20° C. For all the titration experiments, a total of 19 injections of 2 μL were made at 120 s intervals. The heat released due to the first injection (0.4 μL) was excluded from data analyses. […] Equilibrium dissociation constants (Kd) as well as ΔH and ΔS values for binding of each peptide to protein were obtained by fitting the calorimetric data with a single-site model using the stoichiometry parameter n fixed at 1.0 using Malvern PEAQ-ITC data analysis software.
We performed all ITC binding experiments at least in duplicate, and calculations of average and standard error of the mean were performed with GraphPad Prism.

[2] = target: T2, GmPOPB (Galerina marginata, UniProt H2E7Q8); assay: GmPOPB kinetic assays (LC-MS); type: biochemical; settings: room temperature
T2 construct: His-tag (TEV-cleavable) (cleaved yes); host or cells: E. coli BL21(DE3)
Method: Comparison between distinct GmPOPB substrates was performed in 50 mM Tris pH 8.0, 50 mM NaCl, 10 mM DTT with varying concentrations of substrates at room temperature. All reactions were performed in duplicates. Reactions were started by adding GmPOPB (50 nM for GmAMA1_C6S, 1 μM for the 13mer and 14mer, and 20 nM for other substrates) to the assay mixture containing buffer and peptide. Reactions were quenched at several time points by adding 50 μL reaction mixture to 20 μL 6% TFA. Reactants were separated from products for quantification by injecting 50 μL of each quenched time point mix onto a ZORBAX SB-C18, 5 μm, 9.4×50 mm (Agilent) column connected to an Agilent LC-MS (G6130B Single Quad, Agilent Technologies). Reactants were separated from products using a gradient from H2O containing 0.1% TFA or 0.1% formic acid and 5% acetonitrile to 50% acetonitrile, at 1.5 ml/min for 8 min. Peaks with ultra violet (UV) absorbance at 220 and 280 nm were integrated, the area of peaks corresponding to reactant and products was used to calculate the percentage of product formed after a correction for differences in the extinction coefficient of each peptide was applied (ε280-25mer=11,000M-1 cm-1, ε220-25mer=46,000M-1 cm-1, ε280-cyclic=5500M-1 cm-1, ε220-cyclic=34,000M-1 cm-1, and ε280-tail=5500M-1 cm-1). The sum of product+substrate was assumed equal to the total initial amount of substrate, product converted from % to concentration. This value was divided by concentration of enzyme present to yield v/Et (min-1). When enzyme mutants and peptides containing alanine in the core region were tested for activity, higher concentrations 5 μM enzyme and 100 μM substrate were incubated for 1 and 18 h at room temperature. For progress curves with the 35mer substrate, measurements were triplicate and quantification relied on ion counts from mass spectrometry. […] Authentic macrocyclic peptide was quantified by UV absorbance. Data showing products formed after 1 and 16 h with truncated peptides were performed twice. […] Kinetic data were fitted to a Michaelis-Menten equation using GraphPad Prism, and values reported are average and standard error of the mean.

[3] = system: PCY1; assay: PCY1 macrocyclisation of truncated presegetalin F1 substrates with catalytic peptide; type: biochemical, Saponaria vaccaria; settings: for effect of catalytic peptide on rate of PreF1coreT macrocyclisation: substrate PreF1coreT (FSASYSSKPIQT), 500 μM catalytic peptide
Method: Initial rate measurements at different substrate concentrations were performed in order to derive steady state kinetics. All reactions were performed with 0.25 μM PCY1 and 25, 50, 100, 200, 400 or 800 μM substrate ([…] or […]). Reactions containing catalytic peptide RNASAPV or DNASAPV were supplemented with 500 μM of each peptide, respectively. Reactions were performed in 20 mM TRIS pH 8.5, 100 mM NaCl, 5 mM DTT at 30° C. Time points were taken at 5, 15, 30, 45 and 60 min. Samples (50 μL) at each time point were quenched with 20 μL of 6% (v/v) TFA and then spun down for 30 min at 3,080×g. Samples were analysed via LC/MS (ZORBAX SBC18, 5 μm, 9.4 mm×50 mm (Agilent) column connected to an Agilent LC-MS instrument (G6130B Single Quad, Agilent Technologies)) using 0.1% (v/v) formic acid and a gradient of acetonitrile (5%-95%). Extracted ion count peaks for corresponding product (A[[…]]) masses ([M]: 954.44, [M]+H^+: 955.44 and [M]+Na^+: 977.44) were integrated and converted in corresponding product concentration using an ion count v. [product] calibration curve. Product concentration time courses were analysed with linear regression and slopes were plotted as a function of substrate concentrations (Michaelis Menten plot), deriving steady state kinetic parameters shown in FIGS. 7 to 9.

[4] = system: PCY1; assay: LC/MS time course of macrocyclisation by PCY1; type: biochemical, Saponaria vaccaria; settings: 200 μM substrate, 3.6 μM PCY1
Method: (§1) All kinetic measurements (activity tests, progress curves and initial-rate experiments) were performed as discontinuous assays analyzing samples via LC/MS or MALDI (10-mer activity test). Reactions were performed in 20 mM Tris pH 8.5, 100 mM NaCl, 5 mM DTT (for progress curves 0.2 mg mL-1 BSA was included).17 Reactions were performed at 30° C. and at various time points 50 μL samples were quenched with 20 μL of 6% (v/v) TFA. Samples (50 μL) were loaded onto a ZORBAX SBC18, 5 μm, 9.4 mm×50 mm (Agilent) column connected to an Agilent LC-MS instrument (G6130B Single Quad, Agilent Technologies). Reactants were separated from products using a gradient from A (H2O with 0.1% formic acid) to 80% B (acetonitrile), at a rate of 1.5 mL/min for 8.75 min. For data analysis, ion count peaks and UV absorbance peaks were integrated using Agilent ChemStation software. For data analysis involving quantitative mass spec integration, calibration curves with macrocyclic peptide product were performed in triplicate in order to linearly correlate ion counts to cyclic product concentration. Data fitting and plotting was performed with Prism 6.
PCY1 extracted from S. vaccaria seeds has been previously described to have a turnover number of ˜1 h^−1 for PresegA1.^17 The enzyme produced heterologously in E. coli was evaluated by LC/MS-based time course experiments macrocyclizing 200 μM of PresegA1, PresegB1 or PresegF1 with 3.6 μM PCY1. […] We chose to investigate the slowest and fastest substrate by steady-state kinetics using an LC/MS assay and UV280 nm quantification. […] Under the ITC conditions, the measured kcat (0.14±0.01 s^−1) was a factor of three lower than the LC/MS derived values. […] Therefore, we resorted to an LC/MS assay followed by quantification using mass ion counts, relying on a calibration curve employing the macrocyclic peptide product as a standard (FIG. 2b).

[5] = system: PCY1; assay: LC/MS steady-state kinetics of macrocyclisation by PCY1; type: biochemical, Saponaria vaccaria; settings: for Km: read-out: Km (table head prints Kin)
Method: as §1
PCY1 extracted from S. vaccaria seeds has been previously described to have a turnover number of ˜1 h^−1 for PresegA1.^17 The enzyme produced heterologously in E. coli was evaluated by LC/MS-based time course experiments macrocyclizing 200 μM of PresegA1, PresegB1 or PresegF1 with 3.6 μM PCY1. These substrates were chosen as they produce 6, 5 and 9 residue macrocycles, respectively, show variability in the length of the C-terminal tail sequence, and have a different C-terminal core residue (proline in PresegF1, alanine in the other two) (FIG. 1b). PresegB1 was completely macrocyclized in ˜30 min, PresegA1 in ˜50 min and PresegF1 in >3 h (FIG. 2a). We chose to investigate the slowest and fastest substrate by steady-state kinetics using an LC/MS assay and UV280 nm quantification. […] Under the ITC conditions, the measured kcat (0.14±0.01 s^−1) was a factor of three lower than the LC/MS derived values. […] Therefore, we resorted to an LC/MS assay followed by quantification using mass ion counts, relying on a calibration curve employing the macrocyclic peptide product as a standard (FIG. 2b).

[6] = target: PCY1:S562A; assay: ITC equilibrium binding to PCY1:S562A; parameters: species or system Saponaria vaccaria; settings: for Kd: ITC, 25° C.
Method: All PCY1 samples were buffer-exchanged or solubilized into buffer F and further diluted in the same batch of buffer F, in order to minimize buffer mismatches. ITC binding experiments were performed using a cell solution containing PCY1:S562A and a titrant solution with each peptide used. […] The measurements were performed at a stir speed of 750 rpm at 25° C. using a reference power of 10 μcal/s, except for A1-NH2 (5 μcal/s). A buffer titration control in which peptide was titrated into buffer was performed for each experiment. Data processing, fitting to a non-linear one-site binding model, and data plotting was performed using MicroCal PEAQ ITC analysis software (Malvern). […] The measurement was performed in buffer at 30° C., at 750 rpm using a reference power of 5 μcal/s.

[7] = ITC, 20° C., S577A mutant, read-out: Kd

Chain of PCY1:S562A (as listed by the source, stated change not applied): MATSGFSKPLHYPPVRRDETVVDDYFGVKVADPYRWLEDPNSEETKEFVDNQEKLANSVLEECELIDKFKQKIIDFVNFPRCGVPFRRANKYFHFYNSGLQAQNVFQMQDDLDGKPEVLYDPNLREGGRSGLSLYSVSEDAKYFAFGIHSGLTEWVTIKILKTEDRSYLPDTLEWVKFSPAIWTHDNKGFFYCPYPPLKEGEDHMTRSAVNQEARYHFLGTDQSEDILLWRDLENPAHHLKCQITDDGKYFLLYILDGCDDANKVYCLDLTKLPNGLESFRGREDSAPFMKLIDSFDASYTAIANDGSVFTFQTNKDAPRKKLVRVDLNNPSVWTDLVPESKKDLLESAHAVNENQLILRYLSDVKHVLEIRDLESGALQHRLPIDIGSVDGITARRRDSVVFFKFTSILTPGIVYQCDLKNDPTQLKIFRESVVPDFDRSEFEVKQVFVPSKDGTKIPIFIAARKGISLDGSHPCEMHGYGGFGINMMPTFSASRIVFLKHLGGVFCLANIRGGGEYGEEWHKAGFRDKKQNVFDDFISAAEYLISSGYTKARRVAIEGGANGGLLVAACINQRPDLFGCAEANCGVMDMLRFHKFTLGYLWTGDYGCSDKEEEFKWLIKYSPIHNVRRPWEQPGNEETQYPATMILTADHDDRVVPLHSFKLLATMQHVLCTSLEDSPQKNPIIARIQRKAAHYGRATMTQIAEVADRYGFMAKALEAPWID
Chain of PCY1 (as listed by the source): as the sequence (as listed by the source, stated change not applied) above, with A562S counted along it

H-IWGIGCNPWT [10mer]
Kd [1, 7]: 83 ± 17 µM

H-IWGIGCNPWTAEH [13mer]
difference in binding affinity (fold) [1]: ~20 fold and 10 fold | Kd [1, 7]: 2.4 ± 0.1 µM | Km [2]: 25 µM | kcat [2]: 0.00817 s⁻¹

CC[C@H](C)[C@H](NC(=O)CNC(=O)[C@H](Cc1c[nH]c2ccccc12)NC(=O)[C@@H](NC(=O)[C@@H]1CCCN1C(=O)[C@H](CC(C)C)NC(=O)[C@H](CCCNC(=N)N)NC(=O)[C@@H](NC(=O)[C@H](C)NC(=O)[C@H](CC(N)=O)NC(=O)[C@@H](NC(=O)[C@H](CC(=O)O)NC(=O)[C@H](Cc1ccccc1)NC(=O)[C@@H](N)CCSC)[C@@H](C)O)[C@@H](C)O)[C@@H](C)CC)C(=O)NCC(=O)N[C@@H](CS)C(=O)N[C@@H](CC(N)=O)C(=O)N1CCC[C@H]1C(=O)N[C@@H](Cc1c[nH]c2ccccc12)C(=O)N[C@H](C(=O)N[C@@H](C)C(=O)N[C@@H](CCC(=O)O)C(=O)N[C@@H](Cc1c[nH]cn1)C(=O)N[C@H](C(=O)N[C@@H](CC(=O)O)C(=O)N[C@@H](CCC(N)=O)C(=O)N[C@H](C(=O)N[C@@H](CC(C)C)C(=O)N[C@@H](C)C(=O)N[C@@H](CO)C(=O)NCC(=O)N[C@@H](CC(N)=O)C(=O)N[C@@H](CC(=O)O)C(=O)N[C@H](C(=O)N[C@@H](CS)C(=O)O)[C@@H](C)CC)[C@@H](C)O)C(C)C)[C@@H](C)O [35mer, reference compound]
Kd [1, 7]: 0.12 ± 0.03 µM

VDQTLASGNDIC [12mer-recogSeq]
Kd [1]: 5 ± 1 µM | difference in binding affinity (fold) [1]: 20 fold

RGGNASAPV [catalytic peptide for PCY1]
effect of catalytic peptide on rate of PreF1coreT macrocyclisation [3]: increase in the rate

H-IWGIGCNPWTAEHV [14mer]
Kd [1, 7]: 9.5 ± 1.1 µM | Km [2]: 380 µM | kcat [2]: 0.00967 s⁻¹

MFDTNATRLP [reference compound]
binding (in words) ([1]; ITC): no detectable binding | binding (in words) ([1]; ITC, listed as 10-residue leader): does not bind | binding (in words) ([1]; ITC, listed as leader): does not bind

PresegF1: native linear PCY1 substrate presegetalin F1; produces a 9 residue macrocycle (FSASYSSKPIQTQVSNGMDNASAPV; PresegF1)
time until completely macrocyclized [4]: > 3 h | kcat (table head prints kout) ([5]; LC/MS (ion counts), 30° C.): 0.12 ± 0.01 s⁻¹ | Km ([5]; LC/MS (ion counts), 30° C.): 2.4 ± 0.51 µM | processing by PCY1 (in words) ([5]; steady state kinetics, FIG. 7): rapidly processed | Kd [6]: ~0.2 µM

PresegD1: native linear PCY1 substrate presegetalin D1 (GLSFAFPAKDAENASSPV)
Kd [6]: ~0.2 µM

RANASAPV [catalytic peptide for PCY1]
effect of catalytic peptide on rate of PreF1coreT macrocyclisation [3]: increase in the rate

RGANASAPV [catalytic peptide for PCY1]
effect of catalytic peptide on rate of PreF1coreT macrocyclisation [3]: increase in the rate

RAANSAPV [catalytic peptide for PCY1]
effect of catalytic peptide on rate of PreF1coreT macrocyclisation [3]: increase in the rate

FSASYSSKPIQT [PresegF1-truncated]
Km ([5]; LC/MS (ion counts), 30° C.): 227 µM | Kd (in words) ([6]; poor peptide solubility at high concentrations): too high to be accurately measured

RGNASAPV [catalytic peptide for PCY1]
effect of catalytic peptide on rate of PreF1coreT macrocyclisation [3]: increase in the rate

DNASAPV [catalytic peptide for PCY1]
effect of catalytic peptide on rate of PreF1coreD macrocyclisation ([3]; substrate PreF1coreD (FSASYSSKPIQD), mismatched catalytic peptide): reduces the rate

RNASAPV [catalytic peptide for PCY1]
effect of catalytic peptide on rate of PreF1coreT macrocyclisation [3]: increases the rate; also recorded: increase in the rate

H-IWGIGCNPWTA [11mer]
Kd [1, 7]: 39 ± 18 µM

H-IWGIGCNPWTAE [12mer]
Kd [1, 7]: 21 ± 5 µM

RASAPV
effect of catalytic peptide on rate of PreF1coreT macrocyclisation [3]: increase in the rate

TLASGNDIC [9mer-recogSeq]
Kd [1]: 121 ± 19 µM
